For assay [1], the system named is PGE2-contraction in the isolated guinea pig ileum. Description: Inhibition of the PGE2-contraction in the isolated guinea pig ileum. The following applies: Cavia porcellus, agonist PGE2 200 ng/ml; for IC50: 3 min pre-treatment, probit analysis, 37° C; for inhibition at 10 µg/mL: at 10 μg/ml. As to the method: (§1) It is surprising that the compounds of the formula I which are closely related to the natural prostaglandins with regard to their structure, as it has been mentioned above, have a strong anti-prostaglandin effect. If, for example, a solution of the compounds of the invention in water is added to the isolated guinea pig ileum or uterus and if for example prostaglandin E2 or F2 α is added to this solution, in concentrations which normally stimulate the isolated ileum or the isolated uterus to strong contractions, only a weaker or no spasmogenic effect of the prostaglandins E2 and F2 α can be detected - depending on the concentrations used.
As test animals were used brown guinea pigs, males and females having a weight of from about 300 to 400 g. The animals were killed by a blow into the neck, the terminal ileum was rapidly taken off and put into a Petri dish containing a pre-heated Tyrode's solution. The intestine was decomposed into four equal sections (2 to 3 cm). Then the individual sections were put into an organ liquor filled with a Tyrode's solution and bubbled through by oxygen and they were fixed. The bath temperature was 37° C. Composition of the Tyrode's solution: […], 0.2 g of KCl, 0.55 g of CaCl2, 0.2 g of Mg Cl2, 1.0 g of glucose, 1.0 g of NaHCO3 in 1000 ml of distilled water. The free end was connected with the writing lever by a thread. The charge of the thread was 1 g. After a 30 minutes' recovery time the test itself was initiated. The test consisted in a pre-treatment with the antagonist to be tested and in the administration of the agonist three minutes later. The resulting contraction was compared with the initial contraction achieved by the administration of the agonist only. This latter contraction was considered as being 100%, and the contraction determined by the compound of the invention acting as antagonist was expressed in percent with regard to this basic contraction. All substances were dissolved in absolute alcohol and further diluted to their final concentrations with phosphate buffer (pH 7.4). As agonists were used prostaglandin E2 (UPJOHN) in the isolated ileum, and PGF2 in the isolated uterus.
The average concentration was determined by means of the probit analysis. The straight line resulting from this method allowed to read the average inhibiting concentration (Table I).
Inhibition of the PGE2 - and PGF2α -contraction in the isolated guinea pig ileum or uterus

Assay [2] relates to PGF2α-contraction in the isolated guinea pig uterus. Briefly: Inhibition of the PGF2α-contraction in the isolated guinea pig uterus. The settings on record: Cavia porcellus, agonist PGF2α 40 ng/ml, deJalon solution, probit analysis. As to the method: as §1
As test animals were used brown guinea pigs, males and females having a weight of from about 300 to 400 g. The animals were killed by a blow into the neck, the terminal ileum was rapidly taken off and put into a Petri dish containing a pre-heated Tyrode's solution. The intestine was decomposed into four equal sections (2 to 3 cm). […] This latter contraction was considered as being 100%, and the contraction determined by the compound of the invention acting as antagonist was expressed in percent with regard to this basic contraction. […]
The average concentration was determined by means of the probit analysis. The straight line resulting from this method allowed to read the average inhibiting concentration (Table I). […]

[3] abbreviates: read-out: inhibition in percent for the corresponding dosis.

Values after ≈ are worked out from the molar mass of the structure shown.

A word on the IC50: it is the concentration that gives 50% inhibition. A word on the inhibition: it is the share of the control response that was lost under treatment.

Take `CCCCCC(/C=C/C1CCC(O)C1(CCCC(C)CCC(=O)O)C(=O)OCC)OC1CCCCO1` (stereo not drawn) [Example 8, (5RS,3"SR)-1-(6'-Carboxy-4'-methylhexyl)-2-hydroxy-5-[3"-(2'"-tetrahydropyranyloxy)-trans-1"-octenyl]-cyclopentane-carboxylic acid ethyl ester]: the IC50 in assay [1] is less than 10 µg/mL. Also, the inhibition at 10 µg/mL in assay [1] (setting [3]) stood at 80%.

`CCCCCC(O)/C=C/C1CCC(O)C1(CCCCOCC(=O)O)C(=O)OCC` (stereo not drawn) [Example 30, (5RS,3"SR)-1-(6'-Carboxy-5'-oxahexyl)-2-hydroxy-5-[3"-hydroxy-trans-1"-octentyl]-cyclopentane-carboxylic acid ethyl ester]: the IC50 in assay [1] was less than 5 µg/mL. Moreover, in assay [1] (at 5 μg/ml, read-out: inhibition in percent for the corresponding dosis), the inhibition at 5 µg/mL turned out to be 80%.

For `CCCCCC(O)/C=C/C1CCC(O)C1(C/C=C/COCC(=O)OCC)C(=O)OCC` (stereo not shown) [Example 36], the IC50 in assay [1] came to 4.6 µg/mL (≈ 10.4 µM).

For the molecule `CCCCCC(O)/C=C/C1CCC(O)C1(Cc1ccccc1CCCC(=O)O)C(=O)OCC` (stereo not drawn) [Example 46, (5RS,3'"SR)-1-[2'-(3"-Carboxypropyl)-benzyl]-2-hydroxy-5-[3'"-hydroxy-trans-1'"-octenyl]-cyclopentane-carboxylic acid ethyl ester], in assay [1], the IC50 was less than 10 µg/mL. Besides, the inhibition at 10 µg/mL in assay [1] (setting [3]) was determined as 80%.

With `CCCCCC(/C=C/C1CCC(O)C1(CCCCC(C)CC(=O)O)C(=O)OCC)OC1CCCCO1` (stereo not drawn) [Example 11, (5RS,3"SR)-1-(6'-Carboxy-5'-methylhexyl)-2-hydroxy-5-[3"-(2'"-tetrahydropyranyloxy)-trans-1"-octenyl]-cyclopentane-carboxylic acid ethyl ester], the IC50 in assay [1] is less than 10 µg/mL. Besides, in assay [1] (setting [3]), the inhibition at 10 µg/mL worked out at 80%.

Regarding `CCCCCC(/C=C/C1CCC(=O)C1(Cc1ccccc1CCCC(=O)OCC)C(=O)OCC)OC1CCCCO1` (stereo not drawn) [Example 44, (5RS,3'"SR)-1-[2'-(3"-Ethoxycarbonylpropyl)-benzyl]-2-oxo-5-[3'"-(2""-tetrahydropyranyloxy)-trans-1'"-octenyl]-cyclopentane-carboxylic acid ethyl ester], the IC50 in assay [1] was less than 10 µg/mL. Besides, in assay [1] (setting [3]), the inhibition at 10 µg/mL was 40%.

On to `CCCCCC(/C=C/C1CCC(=O)C1(CCCCCC(C)C(=O)OCC)C(=O)OCC)OC1CCCCO1` (stereo not drawn) [Example 13, (5RS,3"SR)-1-(6'-Ethoxycarbonylheptyl)-2-oxo-5-[3"-(2'"-tetrahydropyranyloxy)-trans-1"-octenyl]-cyclopentane-carboxylic acid ethyl ester], for which the IC50 in assay [1] is roughly 5 µg/mL (≈ 9.32 µM).

Regarding `CCCCCC(O)/C=C/C1CCC(O)C1(C/C=C/COCC(=O)O)C(=O)OCC` (stereo not drawn) [Example 37, (5RS,3"SR)-1-(6'-Carboxy-5'-oxa-trans-2'-hexenyl)-2-hydroxy-5-(3"-hydroxy-trans-1"-octenyl)-cyclopentanecarboxylic acid ethyl ester], in assay [1], the IC50 was less than 10 µg/mL. In addition, the inhibition at 10 µg/mL in assay [1] (setting [3]) is 65%.

`CCCCCC(/C=C/C1CCC(O)C1(C/C=C/COCC(=O)O)C(=O)OCC)OC1CCCCO1` (stereo not drawn) [Example 35, (5RS,3"SR)-1-(6'-Carboxy-5'-oxa-trans-2'-hexenyl)-2-hydroxy-5-[3"-(2'"-tetrahydropyranyloxy)-trans-1"-octenyl]cyclopntane-carboxylic acid ethyl ester]: the IC50 in assay [1] worked out at 2.3 µg/mL (≈ 4.63 µM).

In assay [2], `CCCCCC(/C=C/C1CCC(O)C1(CCC(C)CCCC(=O)O)C(=O)OCC)OC1CCCCO1` (stereo not drawn) [Example 5, (5 RS, 3" SR)-1-(6'-Carboxy-3'-methylhexyl)-2-hydroxy-5-[3"-(2"'-tetrahydropyranyloxy)-trans-1"-octenyl]-cyclopentane-carboxylic acid ethyl ester] registered an IC50 of 10 µg/mL (≈ 19.6 µM).

On to `CCCCCC(O)/C=C/C1CCC(O)C1(C/C=C\COCC(=O)O)C(=O)OCC` (stereo not drawn) [Example 32, (5RS,3"SR)-1-(6'-Carboxy-5'-oxa-cis-2'-hexenyl)-2-hydroxy5-[3"-hydroxy-trans-1"-octenyl]-cyclopentane-carboxylic acid ethyl ester], for which the IC50 in assay [1] was roughly 5 µg/mL (≈ 12.1 µM).

Regarding `CCCCCC(/C=C/C1CCC(O)C1(Cc1ccccc1CCCC(=O)O)C(=O)OCC)OC1CCCCO1` (stereo not drawn) [Example 45, (5RS,3'"SR)-1-[2'-(3"-Carboxypropyl)-benzyl]-2-hydroxy-5-[3'"-(2""-tetrahydropyranyloxy)-trans-1'"-octenyl]-cyclopentane-carboxylic acid ethyl ester], the IC50 in assay [1] is roughly 10 µg/mL (≈ 18.4 µM).

With `CCCCCC(/C=C/C1CCC(=O)C1(CCC(C)CCCC(=O)OCC)C(=O)OCC)OC1CCCCO1` (stereo not drawn) [Example 4, (5 RS, 3" SR)-1-(6'-Ethoxycarbonyl-3'-methylhexyl)-2-oxo-5-[3"-(2"'-tetrahydropyranyloxy)-trans-1"-octenyl]-cyclopentane-carboxylic acid ethyl ester], the IC50 in assay [1] is 1.2 µg/mL (≈ 2.24 µM).

As to `CCCCCC(O)/C=C/C1CCC(O)C1(CCCCCCC(=O)O)C(=O)OCC` (stereo not drawn) [Example 3, (5 RS, 3" SR)-1-(6'-carboxyhexyl)-2-hydroxy-5-(3"-hydroxy-trans-1"-octenyl)-cyclopentane-carboxylic acid ethyl ester], the concentration for half-maximal inhibition (IC50) in assay [2] stood at 2 µg/mL (≈ 4.85 µM).

For `CCCCCC(/C=C/C1CCC(=O)C1(CCCCC(C)CC(=O)OCC)C(=O)OCC)OC1CCCCO1` (stereo not drawn) [Example 10, (5RS,3"SR)-1-(6'-Ethoxycarbonyl-5'-methylhexyl)-2-oxo-5-[3"-(2'"-tetrahydropyranyloxy)-trans-1"-octenyl]-cyclopentane-carboxylic acid ethyl ester], the IC50 in assay [1] is greater than 10 µg/mL. The inhibition at 10 µg/mL in assay [1] (setting [3]) was determined as 10%.
